The supplement of paper PMC10307832

Tests used:
Assay in all cases: relative viability (nuclei count vs DMSO), 5 days (fraction); higher = more cells survive
[1] = compound: Nc1nc2[nH]cc(CCc3ccc(C(=O)N[C@@H](CCC(=O)O)C(=O)O)cc3)c2c(=O)[nH]1 [Pemetrexed] + COc1cc2c(Oc3ccc(NC(=O)C4(C(=O)Nc5ccc(F)cc5)CC4)cc3F)ccnc2cc1OCCCN1CCOCC1 [Foretinib] (partner 0.25 µM)
Method in brief: (§1)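 Lung cancer cell lines, seeded in 1536-well plates, were treated the following day by pin tool with a single drug or with five library-drug doses (not always all listed) in √10 steps on top of a fixed anchor-drug dose. Cells were fixed and nuclei stained in one step after 5 days, and nuclei were counted. Relative viability is the nuclei count for treated wells divided by that for vehicle wells, reported as medians of duplicate plates.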

[2] = compound: CC[C@H](Nc1ncnc2[nH]cnc12)c1nc2cccc(F)c2c(=O)n1-c1ccccc1 [Idelalisib] + NC(=O)Nc1cc(-c2cccc(F)c2)sc1C(=O)N[C@H]1CCCNC1 [AZD7762] (partner 0.2 µM)
Method in brief: as §1

[3] = compound: Nc1nc2[nH]cc(CCc3ccc(C(=O)N[C@@H](CCC(=O)O)C(=O)O)cc3)c2c(=O)[nH]1 [Pemetrexed] + Cc1nc(Nc2ncc(C(=O)Nc3c(C)cccc3Cl)s2)cc(N2CCN(CCO)CC2)n1 [Dasatinib] (partner 0.075 µM)
Method in brief: as §1

[4] = compound: CC[C@H](Nc1ncnc2[nH]cnc12)c1nc2cccc(F)c2c(=O)n1-c1ccccc1 [Idelalisib] + CS(=O)(=O)CCNCc1ccc(-c2ccc3ncnc(Nc4ccc(OCc5cccc(F)c5)c(Cl)c4)c3c2)o1 [Lapatinib] (partner 2 µM)
Method in brief: as §1

Cell Line	relative viability ([1]; first compound 0.002 µM)	relative viability ([1]; first compound 0.006325 µM)	relative viability ([1]; first compound 0.02 µM)	relative viability ([1]; first compound 0.06325 µM)	relative viability ([1]; first compound 0.2 µM)	relative viability ([2]; first compound 0.04 µM)	relative viability ([2]; first compound 0.1265 µM)	relative viability ([2]; first compound 0.4 µM)	relative viability ([2]; first compound 1.265 µM)	relative viability ([2]; first compound 4 µM)	relative viability ([3]; first compound 0.002 µM)	relative viability ([3]; first compound 0.006325 µM)	relative viability ([3]; first compound 0.02 µM)	relative viability ([3]; first compound 0.06325 µM)	relative viability ([3]; first compound 0.2 µM)	relative viability ([4]; first compound 0.04 µM)	relative viability ([4]; first compound 0.1265 µM)	relative viability ([4]; first compound 0.4 µM)	relative viability ([4]; first compound 1.265 µM)	relative viability ([4]; first compound 4 µM)
EPLC-272H	0.648	0.609	0.774	0.678	0.573	0.202	0.171	0.28	0.124	0.153	0.328	0.382	0.419	0.299	0.297	0.951	1.04	0.705	0.901	0.84
NCI-H2405	1.06	1.03	1.09	1.03	1.08	0.821	0.779	0.534	0.601	0.705	0.182	0.228	0.228	0.205	0.209	1.16	1.07	0.897	1.14	1.04
LCLC-97TM1	1.01	0.81	0.886	0.872	0.886	0.199	0.382	0.274	0.107	0.339	0.743	0.892	0.967	0.797	0.588	0.913	1.28	–	1.08	0.602
NCI-H727	0.823	0.902	0.87	0.838	0.966	0.625	0.574	0.578	0.379	0.704	–	0.395	0.386	0.421	0.381	0.814	1.09	0.751	1.21	0.719
LK-2	1.09	0.984	1.25	1.2	1.11	0.637	0.395	–	0.27	0.371	0.289	0.198	0.318	0.341	0.254	1.03	0.98	0.63	0.978	0.965
PC-3 [JPC-3]	0.93	1.05	1.02	1.05	1.01	0.916	0.889	0.806	0.707	0.569	0.845	0.988	1.03	0.983	0.941	0.455	0.49	0.439	0.44	0.36
NCI-H596	0.765	0.83	0.938	0.786	0.581	1.02	1.11	1.24	0.853	0.912	0.634	0.642	0.464	0.427	0.414	1.04	1.13	0.895	1.16	0.934
NCI-H460	0.989	0.942	1.1	0.64	0.0776	0.639	0.611	0.615	0.2	0.682	0.357	0.536	0.524	0.406	0.101	1.1	1.2	0.932	1.01	1.02
NCI-H647	0.946	1.07	1.33	0.989	0.386	0.546	0.631	0.409	0.198	0.397	0.151	0.16	0.175	0.156	0.127	1.13	1.27	0.834	0.95	0.546
NCI-H838	1.01	0.912	1.16	0.91	0.267	0.902	0.935	0.907	0.69	0.892	0.361	0.285	0.262	0.212	0.218	0.994	1.12	0.707	0.938	0.767
PC-14	0.894	0.927	1	0.611	0.258	0.313	0.446	0.334	0.265	0.301	0.249	0.242	0.316	0.0953	0.0482	0.329	0.299	0.309	0.306	0.252
NCI-H358	0.624	0.747	0.56	0.223	0.149	0.571	0.462	0.377	0.295	0.409	0.145	0.176	0.205	0.167	0.165	0.468	0.469	0.37	0.488	0.498
NCI-H1915	1.04	1.05	1.11	1.07	1.11	0.766	0.687	0.643	0.552	0.68	0.236	0.313	0.313	0.306	0.319	1.06	1	0.96	1.11	0.922
201T	1.1	1.11	1.19	0.69	0.316	0.712	0.587	0.523	0.377	0.583	0.59	0.554	0.592	0.559	0.507	0.978	1.05	1.04	1.13	1.02
NCI-H1437	–	1.2	1.07	0.796	0.413	1.09	1.03	1.06	0.863	1.15	–	0.473	0.468	0.334	0.21	0.764	0.909	0.734	0.929	0.672
A-427	0.994	1.02	1.08	0.961	0.929	0.773	0.748	0.66	0.442	0.624	0.618	0.696	0.711	0.689	0.664	1.11	1.06	1.04	1.07	1.04
